Literature values in US20090192128A1 (priority 2005, published 2009).
Structures can show the parent of a compound that is named as a salt.

solubility in alcohol (alcohol)	solubility in ether (ether)	SMILES	solubility in organic solvents (organic solvents such as ethanol, ether and chloroform)	solubility in water
		O=[N+]([O-])O[C@H]1CO[C@H]2[C@@H]1OC[C@H]2O[N+](=O)[O-] [Diluted isosorbide dinitrate, 1,4,3,6-dianhydro-D-glucitol-2,5-dinitrate]	freely soluble	sparingly soluble
slightly soluble	very slightly soluble	NNc1nncc2ccccc12 [Hydralazine hydrochloride, hydralazine hydrochloride]		soluble
